Results as given in ChEMBL document CHEMBL3085738, “Synthesis, structure-activity relationship and biological evaluation of 2,4,5-trisubstituted pyrimidine CDK inhibitors as potential anti-tumour agents” (Eur J Med Chem, 2013).
Active and inactive are the calls of the source. The rule behind the calls is not given here.

Experiments:
[1] = molecular target: CDK9/cyclin T1 (Homo sapiens, UniProt P50750); experiment: Inhibition of CDK9/Cyclin T1 (unknown origin) by radiometric assay; format: protein-complex assay; conditions: read-out: Ki(app)
Chain of CDK9/cyclin T1 (O60563 whole entry): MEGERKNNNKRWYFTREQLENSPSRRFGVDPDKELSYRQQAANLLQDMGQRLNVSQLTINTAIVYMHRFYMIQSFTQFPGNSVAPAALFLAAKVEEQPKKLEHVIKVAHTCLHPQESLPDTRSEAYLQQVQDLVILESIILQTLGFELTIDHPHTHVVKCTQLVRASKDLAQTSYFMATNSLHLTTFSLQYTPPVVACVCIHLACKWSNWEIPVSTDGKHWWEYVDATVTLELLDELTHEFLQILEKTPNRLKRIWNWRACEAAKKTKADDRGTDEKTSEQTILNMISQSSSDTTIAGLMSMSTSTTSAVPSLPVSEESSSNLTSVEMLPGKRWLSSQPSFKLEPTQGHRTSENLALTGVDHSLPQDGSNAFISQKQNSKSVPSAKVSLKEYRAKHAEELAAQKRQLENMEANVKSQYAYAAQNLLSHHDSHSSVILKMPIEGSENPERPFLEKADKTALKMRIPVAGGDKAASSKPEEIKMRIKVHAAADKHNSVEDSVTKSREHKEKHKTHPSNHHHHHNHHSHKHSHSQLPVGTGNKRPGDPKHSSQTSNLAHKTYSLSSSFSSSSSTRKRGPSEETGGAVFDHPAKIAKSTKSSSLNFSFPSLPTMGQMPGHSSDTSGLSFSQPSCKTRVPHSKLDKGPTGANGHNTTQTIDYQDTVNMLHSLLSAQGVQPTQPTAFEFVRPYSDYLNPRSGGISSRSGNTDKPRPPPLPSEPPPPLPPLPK
Chain of CDK9/cyclin T1 (P50750 whole entry): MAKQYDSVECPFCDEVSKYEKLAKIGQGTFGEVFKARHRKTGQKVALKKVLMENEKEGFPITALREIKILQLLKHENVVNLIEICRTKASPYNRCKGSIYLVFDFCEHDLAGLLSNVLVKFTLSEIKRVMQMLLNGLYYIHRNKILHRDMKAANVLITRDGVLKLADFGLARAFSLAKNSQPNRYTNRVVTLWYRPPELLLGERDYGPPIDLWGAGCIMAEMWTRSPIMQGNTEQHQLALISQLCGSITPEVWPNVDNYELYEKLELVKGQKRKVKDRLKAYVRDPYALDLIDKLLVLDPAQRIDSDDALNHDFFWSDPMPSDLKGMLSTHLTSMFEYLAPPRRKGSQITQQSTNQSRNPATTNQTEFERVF

[2] = molecular target: Cyclin-dependent kinase 1/cyclin B1 (Homo sapiens, UniProt P06493); experiment: Inhibition of CDK1/Cyclin B (unknown origin) by radiometric assay; format: protein-complex assay; conditions: read-out: Ki(app)
Chain of Cyclin-dependent kinase 1/cyclin B1 (P06493 whole entry): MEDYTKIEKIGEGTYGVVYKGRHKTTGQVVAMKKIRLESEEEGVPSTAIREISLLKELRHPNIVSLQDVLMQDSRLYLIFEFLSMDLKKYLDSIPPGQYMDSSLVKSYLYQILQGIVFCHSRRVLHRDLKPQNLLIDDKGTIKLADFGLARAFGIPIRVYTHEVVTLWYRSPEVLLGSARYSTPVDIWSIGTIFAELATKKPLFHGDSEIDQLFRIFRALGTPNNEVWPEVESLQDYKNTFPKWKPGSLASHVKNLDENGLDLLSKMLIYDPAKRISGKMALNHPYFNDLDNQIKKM
Chain of Cyclin-dependent kinase 1/cyclin B1 (P14635 whole entry, further chain): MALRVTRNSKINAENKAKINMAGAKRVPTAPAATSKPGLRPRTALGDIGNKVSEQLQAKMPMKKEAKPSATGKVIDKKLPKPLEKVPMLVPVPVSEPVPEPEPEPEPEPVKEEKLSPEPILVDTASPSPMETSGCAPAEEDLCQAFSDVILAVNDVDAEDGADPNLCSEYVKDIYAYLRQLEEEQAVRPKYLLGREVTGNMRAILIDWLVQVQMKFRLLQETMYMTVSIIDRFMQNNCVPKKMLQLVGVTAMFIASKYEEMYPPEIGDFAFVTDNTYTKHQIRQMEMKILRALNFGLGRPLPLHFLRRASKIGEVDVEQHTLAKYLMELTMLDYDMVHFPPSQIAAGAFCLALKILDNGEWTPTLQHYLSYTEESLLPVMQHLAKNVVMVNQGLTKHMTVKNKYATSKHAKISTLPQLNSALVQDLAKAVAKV

[3] = molecular target: CDK2/Cyclin A2 (Homo sapiens, UniProt P24941); experiment: Inhibition of CDK2/Cyclin A (unknown origin) by radiometric assay; format: protein-complex assay; conditions: read-out: Ki(app)
[4] = molecular target: Cyclin-dependent kinase 7/ cyclin H (Homo sapiens, UniProt P50613); experiment: Inhibition of CDK7/Cyclin H (unknown origin) by radiometric assay; format: protein-complex assay; conditions: read-out: Ki(app)
Chain of Cyclin-dependent kinase 7/ cyclin H (P51946 whole entry): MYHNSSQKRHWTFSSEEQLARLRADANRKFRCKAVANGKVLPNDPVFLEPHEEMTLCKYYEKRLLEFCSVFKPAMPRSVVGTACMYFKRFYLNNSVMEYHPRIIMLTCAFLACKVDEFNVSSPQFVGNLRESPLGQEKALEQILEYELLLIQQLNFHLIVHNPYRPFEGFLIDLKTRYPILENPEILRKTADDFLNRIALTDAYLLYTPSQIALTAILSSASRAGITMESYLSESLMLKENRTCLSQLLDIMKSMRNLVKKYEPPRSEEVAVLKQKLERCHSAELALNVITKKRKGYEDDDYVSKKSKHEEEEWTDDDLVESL
Chain of Cyclin-dependent kinase 7/ cyclin H (P50613 whole entry): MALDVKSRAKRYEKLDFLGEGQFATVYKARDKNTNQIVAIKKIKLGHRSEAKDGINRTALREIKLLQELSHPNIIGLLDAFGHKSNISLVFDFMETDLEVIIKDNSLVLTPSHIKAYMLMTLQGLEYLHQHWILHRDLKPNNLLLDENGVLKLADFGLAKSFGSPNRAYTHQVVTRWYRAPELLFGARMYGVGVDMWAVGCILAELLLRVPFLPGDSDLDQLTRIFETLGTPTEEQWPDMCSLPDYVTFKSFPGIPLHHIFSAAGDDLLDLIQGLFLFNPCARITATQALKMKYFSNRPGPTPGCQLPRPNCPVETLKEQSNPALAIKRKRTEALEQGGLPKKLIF

[5] = system: HCT-116; experiment: Growth inhibition of human HCT116 cells after 48 hrs by MTT assay; format: functional; conditions: HCT-116, 48 h
[6] = system: MCF7; experiment: Growth inhibition of human MCF7 cells after 48 hrs by MTT assay; format: functional; conditions: MCF7, 48 h
[7] = molecular target: Cyclin-dependent kinase 9 (Homo sapiens) (UniProt P50750); experiment: Inhibition of CDK9 in human HCT116 cells assessed as decrease in RNAP2 CTD phosphorylation at Ser2 at 1 to 5 uM after 24 hrs by Western blot analysis; format: cell-based; conditions: HCT-116
Chain of Cyclin-dependent kinase 9 (Homo sapiens) (P50750 whole entry): as the sequence (P50750 whole entry) above

[8] = molecular target: Cyclin-dependent kinase 9 (Homo sapiens) (UniProt P50750); experiment: Inhibition of CDK9 in human HCT116 cells assessed as decrease in RNAP2 CTD phosphorylation at Ser5 at 10 uM after 24 hrs by Western blot analysis; format: cell-based; conditions: HCT-116
[9] = molecular target: Cyclin-dependent kinase 9 (Homo sapiens) (UniProt P50750); experiment: Inhibition of CDK9 in human HCT116 cells assessed as downregulation of Mcl-1 protein expression at 1 to 5 uM after 24 hrs by Western blot analysis; format: cell-based; conditions: HCT-116
[10] = species: Homo sapiens; experiment: Selectivity ratio of Ki(app) for CDK7/Cyclin H (unknown origin) to Ki(app) for CDK9/Cyclin T1 (unknown origin)

| Ki [1] [µM] | Ki [2] [µM] | Ki [3] [µM] | Ki [4] [µM] | GI50 [5] [µM] | GI50 [6] [µM] | inhibition [7] | inhibition [8] | inhibition [9] | Ratio Ki(app) [10] | SMILES |
| --- | --- | --- | --- | --- | --- | --- | --- | --- | --- | --- |
| 0.008 | 0.043 | 0.032 | 0.304 | – | – | – | – | – | – | CNc1nc(C)c(-c2nc(Nc3ccc(C(=O)NC4CCN(C)CC4)cc3)ncc2C#N)s1 |
| 0.017 | 0.166 | 0.134 | 0.552 | – | – | – | – | – | – | CNc1nc(C)c(-c2nc(Nc3cccc(C(=O)N4CCN(C(C)=O)CC4)c3)ncc2C#N)s1 |
| 0.011 | 0.041 | 0.077 | 1.46 | – | – | – | – | – | – | CC(=O)N1CCN(c2cccc(Nc3ncc(F)c(-c4sc(N)nc4C)n3)c2)CC1 |
| 0.019 | 0.313 | 0.164 | 0.84 | 0.72 | 1.38 | – | – | – | – | CNc1nc(C)c(-c2nc(Nc3cccc(C(=O)N4CCN(C)CC4)c3)ncc2C#N)s1 |
| 0.014 | 0.262 | 0.316 | 0.163 | – | – | Active | Active | Active | – | CNc1nc(C)c(-c2nc(Nc3cccc(C(=O)NC4CCN(C)CC4)c3)ncc2C#N)s1 |
| 0.003 | 0.01 | 0.006 | 0.03 | – | – | – | – | – | – | CNc1nc(C)c(-c2nc(Nc3cccc(S(=O)(=O)NCCOC)c3)ncc2F)s1 |
| 0.095 | 0.261 | 0.485 | 0.393 | 0.52 | 0.55 | – | – | – | – | CNc1nc(C)c(-c2ccnc(Nc3cccc(C(=O)N4CCOCC4)c3)n2)s1 |
| – | 0.205 | 0.199 | 1.87 | 0.59 | 0.82 | – | – | – | 43 | CNc1nc(C)c(-c2nc(Nc3cccc(C(=O)N4CCOCC4)c3)ncc2C#N)s1 |
| 0.011 | 0.101 | 0.13 | 0.133 | – | – | – | – | – | – | CNc1nc(C)c(-c2nc(Nc3ccc(C)c(S(=O)(=O)N4CCOCC4)c3)ncc2F)s1 |
| 0.011 | 0.065 | 0.068 | 0.476 | – | – | – | – | – | – | Cc1nc(N)sc1-c1nc(Nc2cccc(N3CCN(C)CC3)c2)ncc1F |
| 0.036 | 0.064 | 0.231 | 0.542 | – | – | – | – | – | – | CNc1nc(C)c(-c2nc(Nc3cccc(C(=O)NC4CCN(C)CC4)c3)ncc2F)s1 |
| 0.027 | 0.357 | 0.294 | 0.15 | 0.94 | 1.61 | – | – | – | – | CNc1nc(C)c(-c2ccnc(Nc3ccc(C)c(S(=O)(=O)N4CCOCC4)c3)n2)s1 |
| 0.035 | 0.576 | 0.584 | 0.024 | – | – | – | – | – | – | CNc1nc(C)c(-c2nc(Nc3cccc(S(=O)(=O)N4CCN(C)CC4)c3)ncc2C#N)s1 |
| 0.007 | 0.032 | 0.041 | 0.541 | – | – | – | – | – | – | CNc1nc(C)c(-c2nc(Nc3cccc(N4CCN(C)CC4)c3)ncc2F)s1 |
| 0.715 | > 5 | > 5 | > 5 | – | – | – | – | – | – | CNc1nc(C)c(-c2nc(Nc3cc(C(=O)N4CCN(C)CC4)ccc3Cl)ncc2C#N)s1 |
| – | – | – | 0.252 | – | – | – | – | – | – | Cc1nc(N)sc1-c1nc(Nc2cccc(S(N)(=O)=O)c2)ncc1F |
| 0.016 | 0.034 | 0.022 | 0.18 | – | – | – | – | – | – | CNc1nc(C)c(-c2nc(Nc3cccc(S(=O)(=O)NCCOC)c3)ncc2C#N)s1 |
| 0.014 | 0.073 | 0.055 | 0.893 | – | – | – | – | – | – | CNc1nc(C)c(-c2nc(Nc3cccc(S(=O)(=O)N4CCOCC4)c3)ncc2C#N)s1 |
| 0.005 | 0.019 | 0.043 | 0.11 | – | – | – | – | – | – | CNc1nc(C)c(-c2nc(Nc3cccc(S(C)(=O)=O)c3)ncc2C#N)s1 |
